In patent publication US20260184707A1, “PHARMACEUTICAL COMPOUNDS FOR THE TREATMENT OF COMPLEMENT MEDIATED DISORDERS” (ALEXION PHARMACEUTICALS, INC., priority 2022, published 2026):

Target: T1, Human complement C1s enzyme (Homo sapiens, UniProt P09871)
T1 construct: purified from human serum, Complement Technology, Inc; purchased Complement Technology, Inc; host or cells: human serum (plasma-derived native protein)
T1 sequence (P09871 438-688 limits assumed): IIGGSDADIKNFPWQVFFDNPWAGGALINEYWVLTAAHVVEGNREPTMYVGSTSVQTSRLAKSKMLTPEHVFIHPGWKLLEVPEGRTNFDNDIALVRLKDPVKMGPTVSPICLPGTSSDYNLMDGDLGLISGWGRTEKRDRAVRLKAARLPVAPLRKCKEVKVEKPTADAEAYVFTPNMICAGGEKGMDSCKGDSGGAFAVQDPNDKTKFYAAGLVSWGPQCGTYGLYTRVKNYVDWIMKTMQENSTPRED
T1 sequence (P09871 16-437 partner limits assumed): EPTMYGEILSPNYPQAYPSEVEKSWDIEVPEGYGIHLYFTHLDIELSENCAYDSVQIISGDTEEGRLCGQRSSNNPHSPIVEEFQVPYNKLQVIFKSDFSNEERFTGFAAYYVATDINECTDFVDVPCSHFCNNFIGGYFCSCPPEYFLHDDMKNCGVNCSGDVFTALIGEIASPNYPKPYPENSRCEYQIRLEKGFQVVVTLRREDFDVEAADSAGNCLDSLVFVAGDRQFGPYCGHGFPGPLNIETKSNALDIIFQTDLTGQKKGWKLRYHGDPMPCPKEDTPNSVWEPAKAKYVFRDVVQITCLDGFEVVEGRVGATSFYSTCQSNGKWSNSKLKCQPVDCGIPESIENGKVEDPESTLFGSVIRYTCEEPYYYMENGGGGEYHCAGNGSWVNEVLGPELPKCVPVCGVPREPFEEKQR
Assay: Human C1s enzyme assay
Format: biochemical
Conditions: human complement C1s enzyme 1.16 nM, substrate Z-L-Lys-SBzl, A405; read-out: IC50 (Stars)
In short: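 Thioesterase activity followed colorimetrically (DTNB, A405, 30-s reads) using 100 μM Z-L-Lys-SBzl substrate. Enzyme, human serum-derived C1s at 1.16 nM final, was incubated with test compound for 5 min, room temperature, pH 7.5 Tris buffer with 1 M NaCl. Rate-versus-concentration data fitted by nonlinear regression for IC50.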

SMILES | IC50
O=C(Cn1c(-c2ccc(S(F)(F)(F)(F)F)cc2)ncc(NCc2ccc(-c3ccccc3)cc2)c1=O)NCc1cc2cnccc2[nH]1 [Compound 298, N-((1H-pyrrolo[3,2-c]pyridin-2-yl)methyl)-2-(5-(([1,1′-biphenyl]-4-ylmethyl)amino)-6-oxo-2-(4-(pentafluoro-lambda6-sulfaneyl)phenyl)pyr-imidin-1(6H)-yl)acetamide] | < 0.1 µM
C[C@H](Nc1nccn(CC(=O)NCc2cc3cnccc3[nH]2)c1=O)c1ccc2oc3ccccc3c2c1 [Compound 299, (S)—N-((1H-pyrrolo[3,2-c]pyridine-2-yl)methyl)-2-(3-((1-(dibenzo[b,d]furan-2-yl)ethyl)amino)-2-oxopyrazin-1(2H)-yl)acetamide] | < 0.1 µM
C[C@H](Nc1cnc(N2CCn3c(nnc3C(F)(F)F)C2)n(CC(=O)NCc2cc3cnccc3[nH]2)c1=O)c1ccc2oc3ccccc3c2c1 [Compound 300, (S)—N-((1H-pyrrolo[3,2-c]pyridine-2-yl)methyl)-2-(5-((1-(dibenzo[b,d]furan-2-yl)ethyl)amino)-6-oxo-2-(3-(trifluoromethyl)-5,6-dihydro-[1,2,4]triazolo[4,3-a]pyrazin-7(8H)-yl)pyrimidin-1(6H)-yl)acetamide] | < 0.1 µM
O=C(Cn1c(N2CCn3c(nnc3C(F)(F)F)C2)ncc(NCCCc2ccccc2)c1=O)NCc1cc2cnccc2[nH]1 [Compound 301, N-((1H-pyrrolo[3,2-c]pyridin-2-yl)methyl)-2-(6-oxo-5-((3-phenylpropyl)amino)-2-(3-(trifluoromethyl)-5,6-dihydro-[1,2,4]triazolo[4,3-a]pyrazin-7(8H)-yl)pyrimidin-1(6H)-yl)-acetamide] | < 0.1 µM
N#Cc1c(NCCCc2ccccc2)ccc(-c2ccccc2)c1CC(=O)NCc1cc2cnccc2[nH]1 [Compound 302, N-((1H-pyrrolo[3,2-c]pyridine-2-yl)methyl)-2-(3-cyano-4-((3-phenylpropyl)amino)-[1,1′-biphenyl]-2-yl)acetamide] | < 0.1 µM
O=C(Cn1c(-c2ccccc2)ncc(NCC2CCC(c3ccccc3)CC2)c1=O)NCc1cc2cnccc2[nH]1 (stereo not shown) [Compound 303, N-((1H-pyrrolo[3,2-c]pyridine-2-yl)methyl)-2-(6-oxo-2-phenyl-5-(((4-phenylcyclohexyl)methyl)amino)pyrimidin-1(6H)-yl)acetamide] | < 0.1 µM
C[C@@H]1CN(c2ncc(N[C@H](C)c3ccc4oc5ccccc5c4c3)c(=O)n2CC(=O)NCc2cc3cnccc3[nH]2)CCO1 [Compound 304, N-((1H-pyrrolo[3,2-c]pyridin-2-yl)methyl)-2-(5-(((R)-1-(dibenzo[b,d]furan-2-yl)ethyl)-amino)-2-((R)-2-methylmorph-olino)-6-oxopyrimidin-1(6H)-yl)acetamide] | 0.1 to 1 µM
C[C@@H]1CN(c2ncc(N[C@H](C)c3ccc4oc5ccccc5c4c3)c(=O)n2CC(=O)NCc2cc3cnccc3[nH]2)C[C@H](C)O1 [Compound 305, N-((1H-pyrrolo[3,2-c]pyridin-2-yl)methyl)-2-(5-(((R)-1-(dibenzo[b,d]furan-2-yl)ethyl)-amino)-2-((2S,6R)-2,6-dimeth-ylmorpholino)-6-oxopyrimidin-1(6H)-yl)acetamide] | 0.1 to 1 µM
C[C@@H](Nc1cnc(N2C3CCC2COC3)n(CC(=O)NCc2cc3cnccc3[nH]2)c1=O)c1ccc2oc3ccccc3c2c1 [Compound 306, N-((1H-pyrrolo[3,2-c]pyridin-2-yl)methyl)-2-(2-(3-oxa-8-azabicyclo[3.2.1]octan-8-yl)-5-(((R)-1-(dibenzo[b,d]furan-2-yl)ethyl)amino)-6-oxopyrimi-din-1(6H)-yl)acetamide] | 0.1 to 1 µM
C[C@@H](Nc1cnc(-c2ccccc2)n(CC(=O)NCc2cc3cnccc3[nH]2)c1=O)c1ccc(-c2ccccc2F)cc1 [Compound 307, (R)-N-((1H-pyrrolo[3,2-c]pyridin-2-yl)methyl)-2-(5-((1-(2′-fluoro-[1,1′-biphenyl]-4-yl)ethyl)amino)-6-oxo-2-phen-ylpyrimidin-1(6H)-yl)acet-amide] | < 0.1 µM
